From patent US20250057791A1, “PROTECTION AGAINST ARTHROPOD PARASITES WITH PURINERGIC RECEPTOR (OPR) ANTAGONISTS” (priority 2021, published 2025)

Assays:
[1] = tested on: A. gambiae mouthpart ATP-sensitive receptor; experiment: Electrophysiological response to 200 pM ATP with PR antagonist admixed; type: cell-based, Anopheles gambiae; settings: for ID95 in nM (±s.e.m.): increasing doses admixed to 200 pM ATP; for effect on EP response to ATP, in words: 200 pM ATP, suramin at 1 nM
Method: The tip recording method was used to record action potentials (spikes) from sensory cells in sensilla on A. gambiae labellum lobes.
Sensilla were exposed to test compounds and PR antagonists for ca. 2-4 s and spikes were counted in the first 2 s of recordings. Up to 4 test compounds were tested on a sensillum to evaluate potential agonists, each presented at 200 pM. To study responses as a function of dose for agonists ATP, adenosine, AMP, AMP-CPP and ATP+adenosine, up to 7 recordings were made at increasing doses of agonist from the same sensillum. Unless otherwise stated, recordings were made throughout from 4 to 16 sensilla from individual 4-6-day-old females per dose of agonist, antagonist and metal ion modulator. For example, a response curve established over 6 doses of an antagonist using 8 sensilla per dose involved recording from a sensillum of 48 separate mosquitoes. A given dose of a PR antagonist or metal ion modulator was only presented once to a sensillum. Two-second recordings were imported as ASCII files into DataView software for analysis of spike amplitude. Differences in spike amplitude generated by stimulation of one 8v sensillum/female with 1 mM sucrose (n=294 spikes from 6 females) 200 pM adenosine (n=207 spikes from 7 females) and 200 pM ATP (n=192 spikes from 7 females) were compared by measuring the spike amplitude in mV between the highest point of depolarisation and the lowest point of hyperpolarisation.
Pairwise comparisons of A. gambiae electrophysiological (EP) responses to ATP and adenosine alone and combined with a given dose of PR antagonist, EP responses to ATP alone and combined with a given dose of a metal modulator, and EP responses to ATP prior to and after exposure of a sensillum to a given dose of a PR antagonist were made with a one-tailed Wilcoxon signed-rank test for data showing a non-normal distribution, with a paired Student's t-test for normally distributed data showing homogeneous variance and with a Welch's t-test for normally distributed data showing non-homogeneous variance. Effects on feeding of adding ATP, AMP-CPP, adenosine, ATP+adenosine, AMP and ADP-βS, CPT with ATP or adenosine, TMP with ATP+adenosine, TMP+CPT with ATP+adenosine to the FS for A. gambiae, and of adding PR antagonists with ATP to the FS for A. stephensi were compared using one-tailed Mann-Whitney U-test or Welch's t-test, depending on data distribution; Holm's FWEC was applied where treatment comparisons involved the same positive control. Percent feeding inhibition induced by PR antagonists in A. stephensi was calculated using Abbott's formula.
Dose-response models fitted to mosquito data were generated using the ‘drm’ command in the “drc” R package (version 2.5-12). Best fitting models (goodness of fit) and effects of dose of a compound were assessed using, respectively, ‘modelFit’ and ‘noEffect’ functions in the same R package. A 3-parameter logistic model (L3) was fitted to spike-counts recorded to increasing doses of adenosine, AMP, ATP and AMP-CPP. Spike numbers recorded in response to 200 pM ATP with increasing doses of PR antagonists added were analysed using a 4-parameter log-logistic model (LL.4) for A-317491 and spinorphin, using a 4-parameter Weibull model (W1.4) for PPADS, RB-2 and TMP, and using a 3-parameter log-logistic model (LL.3) for suramin. An L3 model was fitted to proportions of females feeding on increasing doses of ATP. Feeding rates on 20 μM ATP with increasing doses of a PR antagonist added were analysed using a 4-parameter log-logistic model (LL.4) with the median of the positive control (20 μM ATP) fixed as the upper asymptote. Response dynamics in 3-parameter models are related to the slope b, the upper asymptote, and inflexion point of the model e (the ED50 value), whereas 4 parameter models also include the lower asymptote parameter. […]

[2] = tested on: Ornithodorus moubata; experiment: Silicone membrane feeding of N3, N4 nymphs, Ornithodorus moubata; type: in vivo; settings: for effect on feeding, compound in solution containing ATP, in words: doses as in Table 9
Method: O. moubata nymphs were fed for 25 min through a membrane (50-75 μm thick) as for hard ticks in glass feeding unit on TFS containing 1000 μM ATP as positive control in each feeding experiment. PR antagonists were added to the TFS as for hard ticks. One compound, TMP was applied onto the membrane in aqueous solution (8 μg TMP in 70 μl) in small drops using a micropipette. Individual nymphs were marked on the dorsum with nail varnish in distinguishable colours and weighed before and after the experiment.
Uptake of TFS containing PR antagonists, converted to mg/h for hard ticks and weight gains in mg/25 min for soft ticks, was compared to TFS uptake in the corresponding positive controls. […] For tsetse and horn flies the percentage flies that fed per antagonist treatment served as the criterion for inhibition of feeding. As horn fly sexes emerged within 24 h, both sexes were assumed to show the same degree of appetence. In tsetse, males emerged first so a gender-related appetence could not be excluded. No sex-related feeding differences in feeding were found for testse (GLM, P>0.05) so data for the sexes were pooled. Comparisons of percentage fed flies were made using a Bayesian GLM—the most appropriate model considering the zero-inflated distributions shown by the data sets. […] P-values were corrected using Holm's FWEC in multiple comparisons of data for each tick and fly species.

[3] = TFS + 100 μM, N3, N4, silicone membrane

| Structure (SMILES) | Mean no. of spikes per 2 s (±s.e.m.), ATP + antagonist ([1]; antagonist 0.6 nM + 200 pM ATP) [spikes per 2 s] | ID95 in nM (±s.e.m.) [1] [nM] | weight gain, Median (mg) ([2]; TFS + 500 μM, N3, N4, silicone membrane) [mg/25 min] | effect on EP response to ATP, in words [1] | Mean no. of spikes per 2 s (±s.e.m.), ATP + antagonist ([1]; antagonist 10 nM + 200 pM ATP) [spikes per 2 s] | weight gain, Median (mg) ([2]; 8 μg/cm^2 on membrane over TFS, N3, N4) [mg/25 min] | weight gain, Median (mg) [2, 3] [mg/25 min] | effect on feeding, compound applied onto the feeding membrane, in words ([2]; dose as in Table 9) | effect on feeding, compound in solution containing ATP, in words [2] | Mean no. of spikes per 2 s (±s.e.m.), ATP + antagonist ([1]; antagonist 0.5 nM + 200 pM ATP) [spikes per 2 s] | weight gain, Median (mg) ([2]; TFS + 1 μM, N3, N4, silicone membrane) [mg/25 min] |
| --- | --- | --- | --- | --- | --- | --- | --- | --- | --- | --- | --- |
| Cc1ccc(C(=O)Nc2ccc(S(=O)(=O)O)c3cc(S(=O)(=O)O)cc(S(=O)(=O)O)c23)cc1NC(=O)c1cccc(NC(=O)Nc2cccc(C(=O)Nc3cc(C(=O)Nc4ccc(S(=O)(=O)O)c5cc(S(=O)(=O)O)cc(S(=O)(=O)O)c45)ccc3C)c2)c1 [Suramin] | 4.20 | 1.15 | 0 | – | – | – | – | – | – | – | – |
| Cc1nc(C)c(C)nc1C [TMP, 2,3,5,6-tetramethylpyrazine] | – | 27.50 | – | inhibited | 11.2 | 0 | 0.1 | significantly inhibited feeding | failed to inhibit feeding | – | – |
| O=C(O)c1cc(C(=O)O)c(C(=O)N(Cc2cccc(Oc3ccccc3)c2)[C@H]2CCCc3ccccc32)cc1C(=O)O [A-317491, 5-[(3-phenoxyphenyl)methyl-[(1S)-1,2,3,4-tetrahydronaphthalen-1-yl]carbamoyl]benzene-1,2,4-tricarboxylic acid] | – | – | – | inhibited | – | – | 0 | – | inhibited feeding | 7.5 | 0.1 |
